ChEMBL document CHEMBL1240341 (Leukemia, 2009)
pIC50: −log10 of the molar value. Blank lines part the entries; values can stand above or below the compound they belong to.

Key:
[1] = target: Serine/threonine-protein kinase TBK1 (Homo sapiens, UniProt Q9UHD2); experiment: Inhibition of TBK1
[2] = target: Calcium/calmodulin-dependent protein kinase type II subunit gamma (Homo sapiens, UniProt Q13555); experiment: Inhibition of CAMK2G
[3] = target: T1, High affinity nerve growth factor receptor (Homo sapiens, UniProt P04629); experiment: Inhibition of TRKA
[4] = target: Interleukin-1 receptor-associated kinase 4 (Homo sapiens, UniProt Q9NWZ3); experiment: Inhibition of IRAK4
[5] = target: T2, BDNF/NT-3 growth factors receptor (Homo sapiens, UniProt Q16620); experiment: Inhibition of TRKB
[6] = target: T3, Angiopoietin-1 receptor (Homo sapiens, UniProt Q02763); experiment: Inhibition of TIE2
[7] = target: Tyrosine-protein kinase BTK (Homo sapiens, UniProt Q06187); experiment: Inhibition of BTK
[8] = target: Protein-tyrosine kinase 2-beta (Homo sapiens, UniProt Q14289); experiment: Inhibition of PTK2B
[9] = target: Mitogen-activated protein kinase kinase kinase kinase 2 (Homo sapiens, UniProt Q12851); experiment: Inhibition of MAP4K2
[10] = target: Misshapen-like kinase 1 (Homo sapiens, UniProt Q8N4C8); experiment: Inhibition of MINK1
[11] = target: Tyrosine-protein kinase ABL2 (Homo sapiens, UniProt P42684); experiment: Inhibition of ABL2
[12] = target: Tyrosine-protein kinase TXK (Homo sapiens, UniProt P42681); experiment: Inhibition of TXK
[13] = target: Tyrosine-protein kinase Blk (Mus musculus, UniProt P16277); experiment: Inhibition of mouse BLK
[14] = target: Tyrosine-protein kinase HCK (Homo sapiens, UniProt P08631); experiment: Inhibition of HCK
[15] = target: Tyrosine-protein kinase Fgr (Homo sapiens, UniProt P09769); experiment: Inhibition of FGR
[16] = target: Tyrosine-protein kinase FRK (Homo sapiens, UniProt P42685); experiment: Inhibition of FRK
[17] = target: Tyrosine-protein kinase CSK (Homo sapiens, UniProt P41240); experiment: Inhibition of CSK
[18] = target: Mitogen-activated protein kinase kinase kinase kinase 5 (Homo sapiens, UniProt Q9Y4K4); experiment: Inhibition of MAP4K5
[19] = target: Serine/threonine-protein kinase 24 (Homo sapiens, UniProt Q9Y6E0); experiment: Inhibition of STK24
[20] = target: Activated CDC42 kinase 1 (Homo sapiens, UniProt Q07912); experiment: Inhibition of TNK2
[21] = target: Tyrosine-protein kinase Tec (Homo sapiens, UniProt P42680); experiment: Inhibition of TEC
[22] = target: Tyrosine-protein kinase receptor UFO (Homo sapiens) (UniProt P30530); experiment: Inhibition of AXL at 10 uM
[23] = target: Tyrosine-protein kinase Fes/Fps (Homo sapiens) (UniProt P07332); experiment: Inhibition of FES at 10 uM
[24] = target: Interleukin-1 receptor-associated kinase 4 (Homo sapiens) (UniProt Q9NWZ3); experiment: Inhibition of IRAK4 at 10 uM
[25] = target: T1, High affinity nerve growth factor receptor; experiment: Inhibition of TRKA at 10 uM
[26] = target: T3, Angiopoietin-1 receptor; experiment: Inhibition of TIE2 at 10 uM
[27] = target: T2, BDNF/NT-3 growth factors receptor; experiment: Inhibition of TRKB at 10 uM

Sequence of Tyrosine-protein kinase Blk (P16277 whole entry): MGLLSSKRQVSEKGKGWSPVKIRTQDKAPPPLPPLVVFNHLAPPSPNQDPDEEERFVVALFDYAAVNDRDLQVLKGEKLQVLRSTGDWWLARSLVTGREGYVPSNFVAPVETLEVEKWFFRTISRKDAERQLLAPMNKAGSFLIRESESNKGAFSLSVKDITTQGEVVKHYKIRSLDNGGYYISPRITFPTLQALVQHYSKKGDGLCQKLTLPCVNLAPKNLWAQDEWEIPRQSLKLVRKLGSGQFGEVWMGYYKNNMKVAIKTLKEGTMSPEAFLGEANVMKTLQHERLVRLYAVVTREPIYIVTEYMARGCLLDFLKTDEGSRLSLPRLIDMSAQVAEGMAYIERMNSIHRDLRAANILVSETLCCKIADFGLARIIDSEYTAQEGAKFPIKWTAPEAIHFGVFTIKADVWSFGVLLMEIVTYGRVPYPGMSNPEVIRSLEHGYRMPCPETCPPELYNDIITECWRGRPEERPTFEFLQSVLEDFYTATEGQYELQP
T3 sequence (Q02763 whole entry): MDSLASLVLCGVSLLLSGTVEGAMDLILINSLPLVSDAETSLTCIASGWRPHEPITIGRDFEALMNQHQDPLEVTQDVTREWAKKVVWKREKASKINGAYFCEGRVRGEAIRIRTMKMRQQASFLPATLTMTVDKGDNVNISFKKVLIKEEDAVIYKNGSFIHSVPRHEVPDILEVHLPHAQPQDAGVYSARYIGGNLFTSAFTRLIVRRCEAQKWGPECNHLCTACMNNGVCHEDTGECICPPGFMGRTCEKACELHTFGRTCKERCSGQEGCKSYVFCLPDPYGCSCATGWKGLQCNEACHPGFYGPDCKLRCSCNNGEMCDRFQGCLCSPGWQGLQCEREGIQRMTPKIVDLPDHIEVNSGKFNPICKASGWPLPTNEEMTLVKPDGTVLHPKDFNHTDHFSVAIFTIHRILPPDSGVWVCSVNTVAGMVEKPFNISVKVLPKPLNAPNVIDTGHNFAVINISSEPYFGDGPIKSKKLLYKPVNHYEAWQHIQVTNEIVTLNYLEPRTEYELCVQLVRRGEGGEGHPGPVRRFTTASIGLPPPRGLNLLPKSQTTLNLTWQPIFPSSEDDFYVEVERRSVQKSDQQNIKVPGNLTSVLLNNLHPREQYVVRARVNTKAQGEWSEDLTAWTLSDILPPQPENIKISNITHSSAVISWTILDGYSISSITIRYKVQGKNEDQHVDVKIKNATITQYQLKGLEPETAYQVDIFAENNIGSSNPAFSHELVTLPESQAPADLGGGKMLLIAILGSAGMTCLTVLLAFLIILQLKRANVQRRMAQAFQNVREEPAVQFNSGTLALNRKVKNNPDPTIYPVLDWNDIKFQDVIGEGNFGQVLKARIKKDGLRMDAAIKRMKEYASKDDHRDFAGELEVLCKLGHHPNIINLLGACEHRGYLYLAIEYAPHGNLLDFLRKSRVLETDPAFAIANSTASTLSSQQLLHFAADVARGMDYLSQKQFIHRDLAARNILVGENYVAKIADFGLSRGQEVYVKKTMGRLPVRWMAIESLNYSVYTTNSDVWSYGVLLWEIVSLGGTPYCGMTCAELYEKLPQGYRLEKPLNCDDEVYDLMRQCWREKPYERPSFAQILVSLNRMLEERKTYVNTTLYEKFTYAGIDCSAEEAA
Sequence of Tyrosine-protein kinase Fgr (P09769 whole entry): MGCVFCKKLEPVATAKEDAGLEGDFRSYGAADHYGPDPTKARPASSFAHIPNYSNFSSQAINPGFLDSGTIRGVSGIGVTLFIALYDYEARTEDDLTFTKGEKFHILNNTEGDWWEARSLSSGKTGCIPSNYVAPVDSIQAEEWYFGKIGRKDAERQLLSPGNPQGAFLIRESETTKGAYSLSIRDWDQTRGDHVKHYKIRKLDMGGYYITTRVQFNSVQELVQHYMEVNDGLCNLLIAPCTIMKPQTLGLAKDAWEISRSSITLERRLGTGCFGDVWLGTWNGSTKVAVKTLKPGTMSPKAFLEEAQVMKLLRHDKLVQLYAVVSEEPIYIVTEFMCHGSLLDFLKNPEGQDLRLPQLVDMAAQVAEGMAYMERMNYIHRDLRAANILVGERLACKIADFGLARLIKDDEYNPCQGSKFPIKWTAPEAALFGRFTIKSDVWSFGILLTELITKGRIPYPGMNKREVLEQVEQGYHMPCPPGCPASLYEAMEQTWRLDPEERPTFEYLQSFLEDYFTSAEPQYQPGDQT
Sequence of Tyrosine-protein kinase ABL2 (P42684 whole entry): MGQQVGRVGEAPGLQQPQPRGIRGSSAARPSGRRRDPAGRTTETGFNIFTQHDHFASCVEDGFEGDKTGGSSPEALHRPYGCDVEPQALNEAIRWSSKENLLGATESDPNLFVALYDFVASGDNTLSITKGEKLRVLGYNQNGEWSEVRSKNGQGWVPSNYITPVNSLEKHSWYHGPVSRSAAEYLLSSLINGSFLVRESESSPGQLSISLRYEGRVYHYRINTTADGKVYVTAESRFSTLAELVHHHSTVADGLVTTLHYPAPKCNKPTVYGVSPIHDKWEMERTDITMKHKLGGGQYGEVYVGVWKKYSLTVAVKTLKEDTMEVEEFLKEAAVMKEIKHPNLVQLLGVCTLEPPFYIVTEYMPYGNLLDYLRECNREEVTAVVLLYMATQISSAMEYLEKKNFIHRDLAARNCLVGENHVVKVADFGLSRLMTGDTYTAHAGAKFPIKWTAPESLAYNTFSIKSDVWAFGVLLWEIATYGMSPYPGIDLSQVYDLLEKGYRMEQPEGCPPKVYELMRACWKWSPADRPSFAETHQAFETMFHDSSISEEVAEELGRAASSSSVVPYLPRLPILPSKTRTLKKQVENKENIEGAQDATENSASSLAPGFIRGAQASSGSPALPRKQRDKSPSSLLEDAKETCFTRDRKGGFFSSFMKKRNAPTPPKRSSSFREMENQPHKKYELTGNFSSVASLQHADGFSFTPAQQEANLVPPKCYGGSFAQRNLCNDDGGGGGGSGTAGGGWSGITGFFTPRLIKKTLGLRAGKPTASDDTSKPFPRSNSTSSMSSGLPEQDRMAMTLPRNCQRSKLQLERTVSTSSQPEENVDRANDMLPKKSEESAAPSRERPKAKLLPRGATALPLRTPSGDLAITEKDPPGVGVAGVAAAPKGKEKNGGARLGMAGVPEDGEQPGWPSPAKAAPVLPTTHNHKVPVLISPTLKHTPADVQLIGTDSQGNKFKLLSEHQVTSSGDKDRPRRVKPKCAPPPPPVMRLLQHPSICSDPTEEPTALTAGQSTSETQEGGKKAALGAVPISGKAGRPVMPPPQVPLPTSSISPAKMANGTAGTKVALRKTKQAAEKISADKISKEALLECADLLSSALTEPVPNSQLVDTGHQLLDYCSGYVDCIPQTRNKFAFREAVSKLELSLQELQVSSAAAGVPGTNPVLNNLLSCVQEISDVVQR
Sequence of Tyrosine-protein kinase Tec (P42680 whole entry): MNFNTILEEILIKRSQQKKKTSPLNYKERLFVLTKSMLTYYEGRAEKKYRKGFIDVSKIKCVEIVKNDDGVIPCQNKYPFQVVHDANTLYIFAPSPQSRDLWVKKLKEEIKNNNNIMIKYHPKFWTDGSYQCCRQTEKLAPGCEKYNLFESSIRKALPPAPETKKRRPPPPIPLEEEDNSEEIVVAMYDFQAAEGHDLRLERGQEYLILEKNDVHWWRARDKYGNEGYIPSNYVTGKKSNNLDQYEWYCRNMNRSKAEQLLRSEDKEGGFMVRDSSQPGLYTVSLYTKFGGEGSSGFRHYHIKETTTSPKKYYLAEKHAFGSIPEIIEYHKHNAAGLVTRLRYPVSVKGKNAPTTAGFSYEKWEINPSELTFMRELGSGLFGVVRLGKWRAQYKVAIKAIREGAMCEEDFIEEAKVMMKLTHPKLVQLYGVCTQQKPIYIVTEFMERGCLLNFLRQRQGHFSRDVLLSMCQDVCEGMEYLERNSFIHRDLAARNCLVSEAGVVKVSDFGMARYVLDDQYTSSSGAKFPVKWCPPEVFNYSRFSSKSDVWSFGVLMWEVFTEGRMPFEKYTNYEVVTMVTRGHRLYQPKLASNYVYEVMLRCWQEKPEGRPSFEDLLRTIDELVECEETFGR
Sequence of Serine/threonine-protein kinase TBK1 (Q9UHD2 whole entry): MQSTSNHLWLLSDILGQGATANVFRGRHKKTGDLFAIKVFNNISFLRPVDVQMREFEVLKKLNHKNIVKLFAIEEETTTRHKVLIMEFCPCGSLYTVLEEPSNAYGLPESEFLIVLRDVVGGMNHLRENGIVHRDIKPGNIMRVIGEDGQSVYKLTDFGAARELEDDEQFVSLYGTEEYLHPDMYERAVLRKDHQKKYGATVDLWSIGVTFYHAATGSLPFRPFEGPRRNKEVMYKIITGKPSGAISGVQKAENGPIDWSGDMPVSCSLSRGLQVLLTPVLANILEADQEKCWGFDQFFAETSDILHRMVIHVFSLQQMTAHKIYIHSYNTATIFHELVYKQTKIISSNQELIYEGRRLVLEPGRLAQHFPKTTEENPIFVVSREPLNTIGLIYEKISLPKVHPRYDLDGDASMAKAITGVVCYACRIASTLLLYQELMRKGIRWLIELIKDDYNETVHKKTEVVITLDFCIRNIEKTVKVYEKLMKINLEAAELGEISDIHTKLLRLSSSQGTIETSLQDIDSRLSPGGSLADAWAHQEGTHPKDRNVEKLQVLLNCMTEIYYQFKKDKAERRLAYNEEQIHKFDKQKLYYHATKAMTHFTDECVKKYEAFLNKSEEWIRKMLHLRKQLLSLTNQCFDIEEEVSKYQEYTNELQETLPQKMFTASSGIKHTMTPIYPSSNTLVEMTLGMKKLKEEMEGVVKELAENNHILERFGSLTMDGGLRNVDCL

pIC50 [1]: 6.33 | pIC50 [2]: 6.74 | pIC50 [3]: 7.66 | pIC50 [4]: 6.24 | pIC50 [5]: 7.57 | pIC50 [6]: 5.92 | pIC50 [7]: 8.60 | pIC50 [8]: 6.87 | pIC50 [9]: 8.00 | pIC50 [10]: 7.66 | pIC50 [11]: 9.30 | pIC50 [12]: 7.40 | pIC50 [13]: 8.14 | pIC50 [14]: 8.49 | pIC50 [15]: 8.96 | pIC50 [16]: 8.66 | pIC50 [17]: 7.20 | pIC50 [18]: 9.52 | pIC50 [19]: 8.41 | pIC50 [20]: 8.57 | pIC50 [21]: 6.55
Compound: COc1cc(Nc2c(C#N)cnc3cc(OCCCN4CCN(C)CC4)c(OC)cc23)c(Cl)cc1Cl [BOSUTINIB]

residual activity [22]: 86% | residual activity [23]: 83% | residual activity [24]: 84% | residual activity [25]: 35% | residual activity [26]: 48% | residual activity [27]: 52% | pIC50 [13]: 8.10
Compound: Cc1nc(Nc2ncc(C(=O)Nc3c(C)cccc3Cl)s2)cc(N2CCN(CCO)CC2)n1 [DASATINIB]
